Assay results published in ChEMBL document CHEMBL1121591, “Synthesis and antitumor activity of 2,4-diamino-6-(2,5-dimethoxybenzyl)-5-methylpyrido[2,3-d]pyrimidine” (1980).

Legend:
Format in all cases: functional
W256 = test: Cytotoxic activity against the Walker 256 carcinosarcoma in rats; settings: Rattus norvegicus, read-out: ED50 (the source's name)
L1210 = test: Cytotoxic activity against the L1210 cell cultures; settings: Mus musculus, read-out: ED50 (the source's name)
CCRF S-180 = test: Cytotoxic activity against the S180 cell cultures; settings: Mus musculus, read-out: ED50 (the source's name)

In the case of `CN(Cc1cnc2nc(N)nc(N)c2n1)c1ccc(C(=O)N[C@@H](CCC(=O)O)C(=O)O)cc1` [METHOTREXATE], the EC50 (W256) is reported as 20 nM, the EC50 (L1210) is reported as 16 nM and the EC50 (CCRF S-180) is reported as 16 nM.
With `Cc1nc(N)nc(N)c1-c1ccc(Cl)c(Cl)c1` [METOPRINE] the EC50 (W256) was 50 nM, the EC50 (L1210) was 220 nM and the EC50 (CCRF S-180) was 50 nM.
`COc1ccc(OC)c(Cc2cnc3nc(N)nc(N)c3c2C)c1` [PIRITREXIM] showed an EC50 (W256) of 8 nM, an EC50 (L1210) of 2 nM and an EC50 (CCRF S-180) of 12 nM.
